Columns and labels:
retinal ganglion cells = conditions: formulation of Compound A; cited from earlier work
normotensive monkeys = conditions: Compound A in combination with latanoprost; cited from earlier work
[1] = Stability study of a 3% suspension of Compound A (Formulation 3) spiked with latanoprost; latanoprost and latanoprost acid by HPLC; type: physicochemical
Protocol: Latanoprost is added, usually aseptically, to the Formulation after the curing step or after all other formulation steps as described above. For example latanoprost can be spiked into Formulation 3 with Compound A at 3.0% (Example 5 above) to prepare a unit dosage of a combination of Compound A with a concentration of latanoprost of about 50 ug/ml. A stability study has been done to study the stability of a combination of a suspension of Compound A as Formulation 3 and latanoprost. The stability study is described below.
A 10 mL sample of a 3% suspension of Compound A spiked with latanoprost at 50 μg/mL was used for the stability study. Ethanol was used to disperse the latanoprost into the suspension of Compound A. The final solution ethanol target was 0.5% so for 10 mLs of the suspension, the latanoprost was dissolved in 50 μL of ethanol.
For 10 mls of the suspension, 0.5 mg of latanoprost was needed for the spike. A 50 μL sample of a commercial solution containing 10 mg/mL of latanoprost in methyl acetate was taken and the solvent removed under vacuum. The residue was taken up in 50 μL of ethanol.
A 9.950 mL sample of the suspension, taken with a 5 mL autopipette (2×4.975 mL) was spiked with the ethanol solution with mixing.
After taking a 500 μL T0 sample, the bulk solution was divided into 3 containers that were set down at 2-8° C., 25° C./60RH and 40° C./75RH.
The solution in this case would be 0.5 mg in 8.5 mL volume or […] of latanoprost in the suspension. Therefore for analysis, the theoretical latanoprost in solution after a 50% dilution with acetonitrile was 29.4 μg/mL.
A calibration curve of latanoprost acid was also prepared using the commercial solution that contained 10 mg/mL in methyl acetate.
In contrast to the latanoprost standards, these solutions were prepared in 100% acetonitrile.
The solutions injected were 5, 2.5 and 1.25 μg/mL solutions.
The stability samples were prepared by vortex mixing and sonication of the suspension followed by a 50% dilution with acetonitrile. After centrifugation the supernatant was injected on the HPLC.
The assay results are shown below in Table 2 where the calculated concentration is shown in μg/mL. (The theory concentration is 29.4 μg/ml),
4 week samples. For the 4 week 25° C./60 and 40° C./75 samples the calculated latanoprost acid values were 0.4 and 0.3 μg/mL respectively. The impurities increased slightly at 3 months. For the 3 month 25° C./60 and 40° C./75 samples the calculated latanoprost acid values were 0.63 and 3.92 μg/mL respectively.
Except for the 40° C./75 sample at 3 months the values for all other samples were below the calibration curve concentrations and therefore below the detection level of the method.

O=[N+]([O-])OC[C@H]1O[C@@H](n2cnc3c(NC4CCCC4)ncnc32)[C@H](O)[C@@H]1O [Compound A, ((2R,3S,4R,5R)-5-(6-(cyclopentylamino)-9H-purin-9-yl)-3,4-dihydroxytetrahydrofuran-2-yl)methyl nitrate]
neuroprotective effect on retinal ganglion cells (retinal ganglion cells): neuroprotective effect | IOP reduction (normotensive monkeys): significant IOP reduction

CC(C)OC(=O)CCC/C=C\C[C@@H]1[C@@H](CC[C@@H](O)CCc2ccccc2)[C@H](O)C[C@@H]1O [Latanoprost, latanoprost]
Latanoprost Assay Results ([1]; 2-8° C., 2 Weeks): 32.29 µg/mL | Latanoprost Assay Results (% T0) ([1]; 2-8° C., 2 Weeks): 109 % T0 | Latanoprost Assay Results (% T0) ([1]; 2-8° C., 3 Months): 121.1 % T0 | Latanoprost Assay Results ([1]; 2-8° C., 3 Months, sample contained some latanoprost impurities): 35.63 µg/mL | Latanoprost Assay Results ([1]; 2-8° C., 4 Weeks): 33.97 µg/mL | Latanoprost Assay Results (% T0) ([1]; 2-8° C., 4 Weeks): 115 % T0 | Latanoprost Assay Results ([1]; 25° C./60, 2 Weeks): 32.37 µg/mL | Latanoprost Assay Results (% T0) ([1]; 25° C./60, 2 Weeks): 110 % T0 | Latanoprost Assay Results (% T0) ([1]; 25° C./60, 3 Months): 103.5 % T0 | Latanoprost Assay Results ([1]; 25° C./60, 3 Months, sample contained some latanoprost impurities): 30.42 µg/mL | Latanoprost Assay Results (% T0) ([1]; 25° C./60, 4 Weeks): 112 % T0 | Latanoprost Assay Results ([1]; 25° C./60, 4 Weeks, sample contained some latanoprost impurities): 32.90 µg/mL | Latanoprost Assay Results ([1]; 40° C./75, 2 Weeks): 31.35 µg/mL | Latanoprost Assay Results (% T0) ([1]; 40° C./75, 2 Weeks): 106 % T0 | Latanoprost Assay Results (% T0) ([1]; 40° C./75, 3 Months): 89.0 % T0 | Latanoprost Assay Results ([1]; 40° C./75, 3 Months, sample contained some latanoprost impurities): 26.18 µg/mL | Latanoprost Assay Results (% T0) ([1]; 40° C./75, 4 Weeks): 101 % T0 | Latanoprost Assay Results ([1]; 40° C./75, 4 Weeks, sample contained some latanoprost impurities): 29.90 µg/mL | Latanoprost Assay Results ([1]; T0, 3% Compound A suspension spiked with latanoprost, 50% dilution with acetonitrile, theory concentration 29.4 μg/ml): 29.49 µg/mL

O=C(O)CCC/C=C\C[C@@H]1[C@@H](CC[C@@H](O)CCc2ccccc2)[C@H](O)C[C@@H]1O [latanoprost acid]
latanoprost acid present in stability sample ([1]; 2-8° C., 4 week sample): No latanoprost acid was present | latanoprost acid present in stability sample ([1]; 2 week samples): No latanoprost acid was present | latanoprost acid present in stability sample ([1]; T0 sample): No latanoprost acid was present

Reference: patent US9522160B2, “Ophthalmic formulations” (Inotek Pharmaceuticals Corporation, priority 2013, dated 2016)
